Converted amounts (≈) assume the structure as drawn. Like-named read-outs stand apart in the source and are kept apart here.
Columns and labels:
[1] = molecular target: T1, WT DNA gyrase (Staphylococcus aureus, UniProt P0A0K8+P20831); experiment: DNA gyrase supercoiling inhibition assay; format: biochemical, S. aureus; conditions: WT enzyme; read-out: IC50 (converted)
T1 construct: purchased Inspiralis Ltd. (Norwich, UK)
Method in brief: (§1)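 Supercoiling of 0.5 μg relaxed […] DNA by 1U gyrase was run with compound in 1% DMSO for 30 min at 37 °C. Products were separated on 1% agarose gel and stained with ethidium bromide. Inhibition was calculated from supercoiled band intensity against a DMSO-only control.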

[2] = molecular target: T2, GyrA S84L mutant DNA gyrase (Staphylococcus aureus, UniProt P0A0K8+P20831, S84L); experiment: DNA gyrase supercoiling inhibition assay; format: biochemical, S. aureus; conditions: S84L mutant enzyme; read-out: IC50 (converted)
T2 construct: purchased Inspiralis Ltd. (Norwich, UK)
Method in brief: as §1

[3] = test system: Acinetobacter baumannii; experiment: MIC (microbroth dilution); format: cell-based; conditions: Acinetobacter baumannii
Method in brief: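 Overnight stationary-phase bacteria were back-diluted and tested by broth microdilution, Streptococcus spp. in cation-adjusted Mueller Hinton broth plus 2.5% lysed horse blood, other species in tryptic soy broth. Some wells also received polymyxin B nonapeptide at 30 μg/mL final. Growth checked visually with OD600; MIC = minimum concentration showing no growth.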

[4] = test system: S. aureus; experiment: Serial passaging, MIC of adapted strains; format: cell-based; conditions: Staphylococcus aureus
Description: MICs were performed on the first and 10th passage.

[5] = test system: S. aureus; experiment: MIC (microbroth dilution); format: cell-based, Staphylococcus aureus
Method in brief: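 Overnight stationary-phase cultures back-diluted and tested by broth microdilution with 2-fold compound series. MIC is lowest concentration with no visible growth, with OD600 also read. Separate runs included polymyxin B nonapeptide at 30 μg/mL final as outer-membrane permeabilizer.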

## C[C@H]1COc2c(N3CCN(C)CC3)c(F)cc3c(=O)c(C(=O)O)cn1c23 [Levofloxacin, (S)-9-Fluoro-3-methyl-10-(4-methylpiperazin-1-yl)-7-oxo-2,3-dihydro-7H-[1,4]oxazino[2,3,4-ij]quinoline-6-carboxylic acid, reference compound]
[1]
  IC50: 24.1 µM
[2]
  IC50: 545 µM
[3]; A118
  MIC: ≤ 0.06 µg/mL
[3]; ATCC17978, ATCC 17978, read-out: MIC
  MIC: 0.125 µg/mL (≈ 0.346 µM)
[3]; BAA1709, BAA-1709, read-out: MIC
  MIC: 0.125 µg/mL (≈ 0.346 µM)
[3]; BAA1710, BAA-1710 (AYE), read-out: MIC
  MIC: 4 µg/mL (≈ 11.1 µM)
[3]; BAA2093, BAA-2093, read-out: MIC
  MIC: 0.06 µg/mL (≈ 0.166 µM)
[3]; NCTC10303, NCTC 10303, read-out: MIC
  MIC: 0.125 µg/mL (≈ 0.346 µM)
[3]; NCTC12156, NCTC 12156, read-out: MIC
  MIC: 1 µg/mL (≈ 2.77 µM)
[3]; NCTC13302, NCTC 13302, oxa24, read-out: MIC
  MIC: 4 µg/mL (≈ 11.1 µM)
[3]; NCTC13424, NCTC 13424, oxa23, read-out: MIC
  MIC: 64 µg/mL (≈ 177 µM)
[3]; UKA1, oxa23, read-out: MIC
  MIC: 2 µg/mL (≈ 5.53 µM)
[3]; UKA2, Low resistance, read-out: MIC
  MIC: 4 µg/mL (≈ 11.1 µM)
[3]; UKA9, read-out: MIC
  MIC: 0.125 µg/mL (≈ 0.346 µM)
[3]; UKA12, oxa23, read-out: MIC
  MIC: 8 µg/mL (≈ 22.1 µM)
[3]; UKA13, oxa23, read-out: MIC
  MIC: 16 µg/mL (≈ 44.3 µM)
[3]; UKA15, oxa23, read-out: MIC
  MIC: 4 µg/mL (≈ 11.1 µM)
[3]; UKA19, read-out: MIC
  MIC: 1 µg/mL (≈ 2.77 µM)
[3]; W1, read-out: MIC
  MIC: 8 µg/mL (≈ 22.1 µM)
[3]; panel of 25 A. baumannii strains
  MIC50: 4 µg/mL (≈ 11.1 µM)
[4]; 1199B WT
  MIC: 1 µg/mL
[4]; 1199B adapted to 4 x MIC of Compound 7
  MIC: 4 µg/mL
[4]; 1199B adapted to 4 x MIC of Compound 46
  MIC: 2 µg/mL
[4]; 1199B adapted to 4 x MIC of Compound 50
  MIC: 4 µg/mL
[4]; 1199B adapted to 4 x MIC of Compound 51
  MIC: 2 µg/mL
[4]; 1199 WT
  MIC: 0.125 µg/mL
[4]; 1199 adapted to 4 x MIC of Compound 7
  MIC: 1 µg/mL
[4]; 1199 adapted to 4 x MIC of Compound 46
  MIC: 0.25 µg/mL
[4]; 1199 adapted to 4 x MIC of Compound 50
  MIC: 1 µg/mL
[4]; 1199 adapted to 4 x MIC of Compound 51
  MIC: 0.25 µg/mL
[4]; NCTC13616, NCTC 13616 WT
  MIC: 8 µg/mL
[4]; NCTC13616, NCTC 13616 adapted to 4 x MIC of Compound 7
  MIC: > 32 µg/mL
[4]; NCTC13616, NCTC 13616 adapted to 4 x MIC of Compound 46
  MIC: 16 µg/mL
[4]; NCTC13616, NCTC 13616 adapted to 4 x MIC of Compound 50
  MIC: 16 µg/mL
[4]; NCTC13616, NCTC 13616 adapted to 4 x MIC of Compound 51
  MIC: 32 µg/mL
[5]; ATCC 9144
  MIC: 0.25 µg/mL (≈ 0.692 µM)
[5]; SA-1199
  MIC: 0.25 µg/mL (≈ 0.692 µM)
[5]; SA-1199B (NorA-overexpressing)
  MIC: 2 µg/mL (≈ 5.53 µM)
[5]; Staphylococcus aureus, 1199, + 4% albumin, read-out: MIC
  MIC: 0.25 µg/mL
[5]; Staphylococcus aureus, 1199b, + 4% albumin, read-out: MIC
  MIC: 2 µg/mL
[5]; Staphylococcus aureus, ATCC9144, ATCC 9144, + 4% albumin, read-out: MIC
  MIC: 0.25 µg/mL
[5]; Staphylococcus aureus, ATCC9144, ATCC 9144, read-out: MIC
  MIC: 0.125 µg/mL (≈ 0.346 µM)
[5]; Staphylococcus aureus, NCTC13277, NCTC 13277, + 4% albumin, read-out: MIC
  MIC: 16 µg/mL
[5]; Staphylococcus aureus, NCTC13277, NCTC 13277, read-out: MIC
  MIC: 16 µg/mL (≈ 44.3 µM)
[5]; Staphylococcus aureus, NCTC13616, NCTC 13616, + 4% albumin, read-out: MIC
  MIC: 16 µg/mL
[5]; Staphylococcus aureus, NCTC13616, NCTC 13616, read-out: MIC
  MIC: 16 µg/mL (≈ 44.3 µM)
[5]; Staphylococcus aureus, SA-1199, read-out: MIC
  MIC: 0.125 µg/mL (≈ 0.346 µM)
[5]; Staphylococcus aureus, SA-1199B (NorA-overexpressing)
  MIC: 1 µg/mL (≈ 2.77 µM)
